Experimental data taken from publication PMC10023787, “Trio-pharmacophore DNA-encoded chemical library for simultaneous selection of fragments and linkers” (Nature Communications, 2023).
Several values for one entry are separate records, joined by “and”; a condition that tells them apart may be missing. Equal entries are not always repeated. Where two headings read alike, the source gives them in different places.

What was measured:
[1] = target: T1, MMP-9 (Homo sapiens, UniProt P14780); test: MMP-9 inhibition assay (fluorogenic peptide substrate); format: biochemical; parameters: remaining enzyme activity (% of control): scale not given here; conditions: for IC50: n.d: not detected
T1 construct: purchased Sino Biological 10327-HNAH
T1 sequence (P14780 107-707 limits assumed): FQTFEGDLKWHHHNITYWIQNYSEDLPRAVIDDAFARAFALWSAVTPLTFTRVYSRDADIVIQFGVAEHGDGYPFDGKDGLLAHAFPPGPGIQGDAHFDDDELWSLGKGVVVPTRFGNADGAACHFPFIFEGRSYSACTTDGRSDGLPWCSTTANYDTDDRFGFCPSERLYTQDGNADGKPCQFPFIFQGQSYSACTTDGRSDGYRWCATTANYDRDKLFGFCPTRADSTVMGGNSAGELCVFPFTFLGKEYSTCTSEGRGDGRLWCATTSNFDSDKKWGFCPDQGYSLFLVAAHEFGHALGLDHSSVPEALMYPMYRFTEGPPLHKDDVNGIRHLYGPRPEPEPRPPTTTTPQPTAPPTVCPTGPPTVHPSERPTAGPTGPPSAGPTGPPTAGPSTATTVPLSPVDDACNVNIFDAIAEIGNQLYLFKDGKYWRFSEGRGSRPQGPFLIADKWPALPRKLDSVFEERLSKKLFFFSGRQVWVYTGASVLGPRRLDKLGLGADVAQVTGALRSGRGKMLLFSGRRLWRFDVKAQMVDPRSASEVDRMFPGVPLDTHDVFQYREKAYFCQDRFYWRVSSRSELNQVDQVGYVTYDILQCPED
In short: (§1)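 Human proMMP-2 and proMMP-9 were activated with 1 mM APMA for 2 h at 37 °C, then used at 6.5 nM (MMP-2) or 10 nM (MMP-9) final in Tris/NaCl/CaCl2/Brij 35 buffer, pH 7.5. After 30 min preincubation with compound at RT, 25 μM FRET peptide substrate was added and fluorescence (ex 280/em 360 nm) followed for 30 min. IC50 came from logistic fits of Vmax.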

[2] = target: T2, MMP-2 (Homo sapiens, UniProt P08253); test: MMP-2 inhibition assay (fluorogenic peptide substrate); format: biochemical; conditions: for IC50: n.d: not detected
T2 construct: purchased Sino Biological 10082-HNAH
T2 sequence (P08253 110-660): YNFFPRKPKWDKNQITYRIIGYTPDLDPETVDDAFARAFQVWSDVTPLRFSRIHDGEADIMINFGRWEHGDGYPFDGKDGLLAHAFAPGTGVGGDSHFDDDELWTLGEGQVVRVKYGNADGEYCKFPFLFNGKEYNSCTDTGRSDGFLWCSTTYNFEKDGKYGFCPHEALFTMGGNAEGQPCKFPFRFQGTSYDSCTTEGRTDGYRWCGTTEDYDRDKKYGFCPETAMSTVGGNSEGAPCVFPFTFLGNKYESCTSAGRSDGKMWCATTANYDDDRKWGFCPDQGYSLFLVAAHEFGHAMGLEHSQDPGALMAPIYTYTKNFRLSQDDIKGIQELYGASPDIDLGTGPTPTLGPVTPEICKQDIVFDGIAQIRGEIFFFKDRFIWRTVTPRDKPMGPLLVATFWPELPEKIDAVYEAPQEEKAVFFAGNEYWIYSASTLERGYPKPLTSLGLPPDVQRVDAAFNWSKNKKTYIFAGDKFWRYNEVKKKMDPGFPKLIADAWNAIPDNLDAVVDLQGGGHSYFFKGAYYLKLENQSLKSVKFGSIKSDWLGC
In short: as §1

[3] = MMP-9, concentration 1219.00 µM
[4] = mean ± SE, Fig. 5e prints no unit, µM, read-out: IC50
[5] = MMP-2, concentration 1219.00 µM
[6] = mean ± SE, Fig. 5d unit inferred, µM, read-out: IC50
[7] = Figure 5d, fragment combination joined by linker, read-out: MMP9 IC50
[8] = Figure 5d, fragment combination joined by linker, read-out: MMP2 IC50

SMILES: Cc1cc(=O)[nH]c(-n2nc(C)c(CCC(=O)NCCCCCCCCNC(=O)c3cncc(O)c3)c2C)n1 [693+828 Linker 4]
- remaining enzyme activity (% of control) ([1]; MMP-9, concentration 0.08 µM): 97.75
- remaining enzyme activity (% of control) ([1]; MMP-9, concentration 0.39 µM): 94.18
- remaining enzyme activity (% of control) ([1]; MMP-9, concentration 1.95 µM): 90.34
- remaining enzyme activity (% of control) ([1]; MMP-9, concentration 9.75 µM): 92.01
- remaining enzyme activity (% of control) ([1]; MMP-9, concentration 48.76 µM): 87.31
- remaining enzyme activity (% of control) ([1]; MMP-9, concentration 243.80 µM): 52.96
- remaining enzyme activity (% of control) [1, 3]: 7.04
- IC50 [1, 4]: 261 ± 31.3 µM
- remaining activity (%) ([2]; MMP-2, concentration 0.0156 µM): 102.68
- remaining activity (%) ([2]; MMP-2, concentration 0.08 µM): 100.17
- remaining activity (%) ([2]; MMP-2, concentration 0.39 µM): 95.94
- remaining activity (%) ([2]; MMP-2, concentration 1.95 µM): 99.37
- remaining activity (%) ([2]; MMP-2, concentration 9.75 µM): 100.31
- remaining activity (%) ([2]; MMP-2, concentration 48.76 µM): 87.56
- remaining activity (%) ([2]; MMP-2, concentration 243.80 µM): 44.10
- remaining activity (%) [2, 5]: 12.13
- IC50 [2, 6]: 212 ± 15.9 µM

SMILES: Cc1cc(=O)[nH]c(-n2nc(C)c(CCC(=O)NCCOCCOCCNC(=O)c3cncc(O)c3)c2C)n1 [693+828 Linker 10]
- remaining enzyme activity (% of control) ([1]; MMP-9, concentration 0.08 µM): 97.89
- remaining enzyme activity (% of control) ([1]; MMP-9, concentration 0.39 µM): 99.26
- remaining enzyme activity (% of control) ([1]; MMP-9, concentration 1.95 µM): 97.73
- remaining enzyme activity (% of control) ([1]; MMP-9, concentration 9.75 µM): 98.89
- remaining enzyme activity (% of control) ([1]; MMP-9, concentration 48.76 µM): 84.90
- remaining enzyme activity (% of control) ([1]; MMP-9, concentration 243.80 µM): 42.77
- remaining enzyme activity (% of control) [1, 3]: 10.96
- IC50 [1, 4]: 201 ± 21.3 µM
- remaining activity (%) ([2]; MMP-2, concentration 0.0156 µM): 88.17
- remaining activity (%) ([2]; MMP-2, concentration 0.08 µM): 88.67
- remaining activity (%) ([2]; MMP-2, concentration 0.39 µM): 96.33
- remaining activity (%) ([2]; MMP-2, concentration 1.95 µM): 93.57
- remaining activity (%) ([2]; MMP-2, concentration 9.75 µM): 94.74
- remaining activity (%) ([2]; MMP-2, concentration 48.76 µM): 85.76
- remaining activity (%) ([2]; MMP-2, concentration 243.80 µM): 33.24
- remaining activity (%) [2, 5]: 9.64
- IC50 [2, 6]: 186 ± 15.7 µM

SMILES: Cc1cc(=O)[nH]c(-n2nc(C)c(CCC(=O)NCCNC(=O)CC(=O)/C=C/CCCCNC(=O)c3cncc(O)c3)c2C)n1 [693+828 Linker 12]
- remaining activity at 0.04 µM ([1]; MMP-9, concentration 0.04 µM, read-out: Mean (MMP-9 dose-response, Supplementary fig 15)): 95.5%
- remaining activity at 0.21 µM ([1]; MMP-9, concentration 0.21 µM, read-out: Mean (MMP-9 dose-response, Supplementary fig 15)): 89%
- remaining activity at 1.04 µM ([1]; MMP-9, concentration 1.04 µM, read-out: Mean (MMP-9 dose-response, Supplementary fig 15)): 89.5%
- remaining activity at 5.19 µM ([1]; MMP-9, concentration 5.19 µM, read-out: Mean (MMP-9 dose-response, Supplementary fig 15)): 71.7%
- remaining activity at 25.96 µM ([1]; MMP-9, concentration 25.96 µM, read-out: Mean (MMP-9 dose-response, Supplementary fig 15)): 32.6%
- remaining activity at 129.8 µM ([1]; MMP-9, concentration 129.80 µM, read-out: Mean (MMP-9 dose-response, Supplementary fig 15)): 0%
- remaining activity at 649 µM ([1]; MMP-9, concentration 649.00 µM, read-out: Mean (MMP-9 dose-response, Supplementary fig 15)): 0%
- IC50 [1, 4]: 14.8 µM and 15 µM
- remaining activity at 0.00831 µM ([2]; MMP-2, concentration 0.00831 µM, read-out: Mean (MMP-2 dose-response, Supplementary fig 15)): 95.7%
- remaining activity at 0.04 µM ([2]; MMP-2, concentration 0.04 µM, read-out: Mean (MMP-2 dose-response, Supplementary fig 15)): 92.8%
- remaining activity at 0.21 µM ([2]; MMP-2, concentration 0.21 µM, read-out: Mean (MMP-2 dose-response, Supplementary fig 15)): 86.2%
- remaining activity at 1.04 µM ([2]; MMP-2, concentration 1.04 µM, read-out: Mean (MMP-2 dose-response, Supplementary fig 15)): 77.4%
- remaining activity at 5.19 µM ([2]; MMP-2, concentration 5.19 µM, read-out: Mean (MMP-2 dose-response, Supplementary fig 15)): 60.2%
- remaining activity at 25.96 µM ([2]; MMP-2, concentration 25.96 µM, read-out: Mean (MMP-2 dose-response, Supplementary fig 15)): 25.3%
- remaining activity at 129.8 µM ([2]; MMP-2, concentration 129.80 µM, read-out: Mean (MMP-2 dose-response, Supplementary fig 15)): 0%
- remaining activity at 649 µM ([2]; MMP-2, concentration 649.00 µM, read-out: Mean (MMP-2 dose-response, Supplementary fig 15)): 0%
- IC50 [2, 6]: 10 µM

SMILES: Cc1cc(=O)[nH]c(-n2nc(C)c(CCC(=O)NCCNC(=O)CSCCNC(=O)c3cncc(O)c3)c2C)n1 [693+828 Linker 24]
- remaining enzyme activity (% of control) ([1]; MMP-9, concentration 0.04 µM): 101.25
- remaining enzyme activity (% of control) ([1]; MMP-9, concentration 0.21 µM): 90.43
- remaining enzyme activity (% of control) ([1]; MMP-9, concentration 1.04 µM): 102.01
- remaining enzyme activity (% of control) ([1]; MMP-9, concentration 5.19 µM): 89.02
- remaining enzyme activity (% of control) ([1]; MMP-9, concentration 25.96 µM): 79.56
- remaining enzyme activity (% of control) ([1]; MMP-9, concentration 129.80 µM): 32.87
- remaining enzyme activity (% of control) ([1]; MMP-9, concentration 649.00 µM): 0.00
- IC50 [1, 4]: 80.5 ± 15.2 µM
- remaining activity (%) ([2]; MMP-2, concentration 0.0156 µM): 100.00
- remaining activity (%) ([2]; MMP-2, concentration 0.08 µM): 92.98
- remaining activity (%) ([2]; MMP-2, concentration 0.39 µM): 98.13
- remaining activity (%) ([2]; MMP-2, concentration 1.95 µM): 86.92
- remaining activity (%) ([2]; MMP-2, concentration 9.75 µM): 82.64
- remaining activity (%) ([2]; MMP-2, concentration 48.76 µM): 53.90
- remaining activity (%) ([2]; MMP-2, concentration 243.80 µM): 16.08
- remaining activity (%) [2, 5]: 0.00
- IC50 [2, 6]: 59.9 ± 15.7 µM

SMILES: Cc1cc(=O)[nH]c(-n2nc(C)c(CCC(=O)NCc3c[nH]nn3)c2C)n1 [693_787 1]
- IC50 [1, 7]: 312 µM
- IC50 [2, 8]: 204 µM

SMILES: Cc1cc(=O)[nH]c(-n2nc(C)c(CCC(=O)NCCCCCCCCNC(=O)CCC(=O)NCc3c[nH]nn3)c2C)n1 [693_787 4]
- IC50 [1, 7]: 250 µM
- IC50 [2, 8]: 169 µM

SMILES: Cc1cc(=O)[nH]c(-n2nc(C)c(CCC(=O)NCCOCCOCCNC(=O)CCC(=O)NCc3c[nH]nn3)c2C)n1 [693_787 10]
- IC50 [1, 7]: 230 µM
- IC50 [2, 8]: 171 µM

SMILES: Cc1cc(=O)[nH]c(-n2nc(C)c(CCC(=O)NCCNC(=O)CC(=O)/C=C/CCCCNC(=O)CCC(=O)NCc3c[nH]nn3)c2C)n1 [693_787 12]
- IC50 [1, 7]: 45.6 µM
- IC50 [2, 8]: 68.4 µM

SMILES: Cc1cc(=O)[nH]c(-n2nc(C)c(CCC(=O)NCCSCC(=O)NCc3c[nH]nn3)c2C)n1 [693_787 24]
- IC50 [1, 7]: 270 µM
- IC50 [2, 8]: 149 µM

SMILES: Cc1cc(=O)[nH]c(-n2nc(C)c(CCC(=O)NCCNC(=O)CC(=O)/C=C/CCCCNC(=O)c3cnc4c(c3)nc(O)n4C)c2C)n1 [693_826 12]
- IC50 [1, 7]: 58.9 µM
- IC50 [2, 8]: 210 µM

SMILES: Cc1cc(=O)[nH]c(-n2nc(C)c(CCC(=O)NCCSCC(=O)NCCNC(=O)c3cnc4c(c3)nc(O)n4C)c2C)n1 [693_826 24]
- IC50 [1, 7]: 358 µM
- IC50 [2, 8]: 417 µM

SMILES: Cc1cc(=O)[nH]c(-n2nc(C)c(CCC(=O)NCCNC(=O)c3cncc(O)c3)c2C)n1 [693_828 1]
- IC50 [1, 7]: 232 µM
- IC50 [2, 8]: 110 µM

SMILES: Cc1cc(=O)[nH]c(-n2nc(C)c(CCC(=O)NCCCCCCCCNC(=O)c3cncc(O)c3)c2C)n1 [693_828 4]
- IC50 [1, 7]: 261 µM
- IC50 [2, 8]: 212 µM

SMILES: Cc1cc(=O)[nH]c(-n2nc(C)c(CCC(=O)NCCOCCOCCNC(=O)c3cncc(O)c3)c2C)n1 [693_828 10]
- IC50 [1, 7]: 201 µM
- IC50 [2, 8]: 186 µM

SMILES: Cc1cc(=O)[nH]c(-n2nc(C)c(CCC(=O)NCCNC(=O)CC(=O)/C=C/CCCCNC(=O)c3cncc(O)c3)c2C)n1 [693_828 12]
- IC50 [1, 7]: 14.8 µM
- IC50 [2, 8]: 10 µM

SMILES: Cc1cc(=O)[nH]c(-n2nc(C)c(CCC(=O)NCCNC(=O)CSCCNC(=O)c3cncc(O)c3)c2C)n1 [693_828 24]
- IC50 [1, 7]: 80.5 µM
- IC50 [2, 8]: 59.9 µM
